Values quoted from earlier work as cited in PMC12239574 (mBio, 2025).

Test system: SARS-CoV-2 with M^pro E166V

Structure (SMILES) | fold increase in the antiviral EC50 relative to the wild-type virus [fold]
Cn1cnc(Cn2c(=O)[nH]/c(=N\c3cc4cn(C)nc4cc3Cl)n(Cc3cc(F)c(F)cc3F)c2=O)n1 [ensitrelvir] | 23
CC(C)(C)[C@H](NC(=O)C(F)(F)F)C(=O)N1C[C@H]2[C@@H]([C@H]1C(=O)N[C@H](C#N)C[C@@H]1CCNC1=O)C2(C)C [nirmatrelvir] | 100
